# Assay results reported in ChEMBL document CHEMBL4007492, “Discovery of an Acrylic Acid Based Tetrahydroisoquinoline as an Orally Bioavailable Selective Estrogen Receptor Degrader for ERα+ Breast Cancer” (J Med Chem, 2017).
# Tests used:
# Plasma [1] = assay: Metabolic stability of the compound in Sprague Dawley rat plasma assessed as compound racemization rate at 5 uM after 4 hrs by UPLC analysis; format: ADME, cell-free
# Plasma [2] = assay: Metabolic stability of the compound in human plasma assessed as compound racemization rate at 5 uM after 4 hrs by UPLC analysis; format: ADME, cell-free
# Plasma [3] = assay: Metabolic stability of the compound in cynomolgus monkey plasma assessed as compound racemization rate at 5 uM after 4 hrs by UPLC analysis; format: ADME, cell-free, Macaca fascicularis
# Plasma [4] = assay: Metabolic stability of the compound in Beagle dog plasma assessed as compound racemization rate at 5 uM after 4 hrs by UPLC analysis; format: ADME, cell-free, Canis lupus familiaris
# Plasma [5] = assay: Metabolic stability of the compound in C57BL/6 mouse plasma assessed as compound racemization rate at 5 uM after 4 hrs by UPLC analysis; format: ADME, cell-free
# [6] = Stability of the compound in aqueous buffer assessed as compound racemization rate at 5 uM at pH 6.8 after 4 hrs by UPLC analysis; format: physicochemical; settings: pH 6.8, 4 h
# [7] = Stability of the compound in aqueous buffer assessed as compound racemization rate at 5 uM at pH 7.4 after 4 hrs by UPLC analysis; format: physicochemical; settings: pH 7.4, 4 h
# [8] = Stability of the compound in methanol at room temperature assessed as compound racemization rate at 5 uM at pH 6.8 after 1 hr by UPLC analysis; format: physicochemical; settings: pH 6.8, 1 h
# [9] = pampa, 4 h, 5 µM
# physchem = settings: buffer, pH 6.8
# [10] = Oral bioavailability in Sprague-Dawley rat at 3 mg/kg administered as solution measured up to 7 hrs by LC/MS/MS analysis; format: ADME, organism-based; settings: in vivo
# Rattus norvegicus [11] = assay: Dose normalized Cmax in Sprague-Dawley rat at 3 mg/kg, po administered as solution measured up to 7 hrs by LC/MS/MS analysis; format: ADME, organism-based; settings: in vivo
# [12] = Tmax in Sprague-Dawley rat at 3 mg/kg, po administered as solution measured up to 7 hrs by LC/MS/MS analysis; format: ADME, organism-based; settings: in vivo
# Rattus norvegicus [13] = assay: Dose normalized AUC (0 to t) in Sprague-Dawley rat at 3 mg/kg, po administered as solution measured up to 7 hrs by LC/MS/MS analysis; format: ADME, organism-based; settings: in vivo
# Rattus norvegicus [14] = assay: Dose normalized AUC (0 to t) in Sprague-Dawley rat at 1 mg/kg, iv administered as solution measured up to 7 hrs by LC/MS/MS analysis; format: ADME, organism-based; settings: in vivo
# [15] = Clearance in Sprague-Dawley rat at 3 mg/kg, po administered as solution measured up to 7 hrs by LC/MS/MS analysis; format: ADME, organism-based; settings: in vivo
# [16] = Elimination half life in Sprague-Dawley rat at 1 mg/kg, iv or 3 mg/kg, po administered as solution measured up to 7 hrs by LC/MS/MS analysis; format: ADME, organism-based; settings: in vivo, read-out: beta t1/2 (converted)
# Rattus norvegicus [17] = assay: Dose normalized Cmax in Sprague-Dawley rat at 30 mg/kg, po administered as suspension measured up to 7 hrs by LC/MS/MS analysis; format: ADME, organism-based; settings: in vivo
# [18] = Tmax in Sprague-Dawley rat at 30 mg/kg, po administered as suspension measured up to 7 hrs by LC/MS/MS analysis; format: ADME, organism-based; settings: in vivo
# Rattus norvegicus [19] = assay: Dose normalized AUC (0 to t) in Sprague-Dawley rat at 30 mg/kg, po administered as suspension measured up to 7 hrs by LC/MS/MS analysis; format: ADME, organism-based; settings: in vivo
# Rattus norvegicus [20] = assay: Dose normalized Cmax in Sprague-Dawley rat at 100 mg/kg, po administered as suspension measured up to 7 hrs by LC/MS/MS analysis; format: ADME, organism-based; settings: in vivo
# [21] = Tmax in Sprague-Dawley rat at 100 mg/kg, po administered as suspension measured up to 7 hrs by LC/MS/MS analysis; format: ADME, organism-based; settings: in vivo
# Rattus norvegicus [22] = assay: Dose normalized AUC (0 to t) in Sprague-Dawley rat at 100 mg/kg, po administered as suspension measured up to 7 hrs by LC/MS/MS analysis; format: ADME, organism-based; settings: in vivo
# Rattus norvegicus [23] = assay: Dose normalized Cmax in Sprague-Dawley rat at 3 mg/kg, po administered as suspension measured up to 7 hrs by LC/MS/MS analysis; format: ADME, organism-based; settings: in vivo
# [24] = Tmax in Sprague-Dawley rat at 3 mg/kg, po administered as suspension measured up to 7 hrs by LC/MS/MS analysis; format: ADME, organism-based; settings: in vivo
# Rattus norvegicus [25] = assay: Dose normalized AUC (0 to t) in Sprague-Dawley rat at 3 mg/kg, po administered as suspension measured up to 7 hrs by LC/MS/MS analysis; format: ADME, organism-based; settings: in vivo
# [26] = Oral bioavailability in Beagle dog at 10 mg/kg administered as solution measured up to 7 hrs by LC/MS/MS analysis; format: ADME, organism-based, Canis lupus familiaris; settings: in vivo
# Canis familiaris [27] = assay: Dose normalized Cmax in Beagle dog at 10 mg/kg, po administered as solution measured up to 7 hrs by LC/MS/MS analysis; format: ADME, organism-based, Canis lupus familiaris; settings: in vivo
# Canis familiaris [28] = assay: Dose normalized AUC (0 to t) in Beagle dog at 10 mg/kg, po administered as solution measured up to 7 hrs by LC/MS/MS analysis; format: ADME, organism-based, Canis lupus familiaris; settings: in vivo
# Canis familiaris [29] = assay: Dose normalized AUC (0 to t) in Beagle dog at 0.3 mg/kg, iv administered as solution measured up to 7 hrs by LC/MS/MS analysis; format: ADME, organism-based, Canis lupus familiaris; settings: in vivo
# [30] = Tmax in Beagle dog at 10 mg/kg, po administered as solution measured up to 7 hrs by LC/MS/MS analysis; format: ADME, organism-based, Canis lupus familiaris; settings: in vivo
# [31] = Clearance in Beagle dog at 10 mg/kg, po administered as solution measured up to 7 hrs by LC/MS/MS analysis; format: ADME, organism-based, Canis lupus familiaris; settings: in vivo
# [32] = Elimination half life in Beagle dog at 0.3 mg/kg, iv or 10 mg/kg, po administered as solution measured up to 7 hrs by LC/MS/MS analysis; format: ADME, organism-based, Canis lupus familiaris; settings: in vivo, read-out: beta t1/2 (converted)
# Rattus norvegicus [33] = assay: Clearance in Sprague-Dawley rat at 3 mg/kg, po administered as solution measured up to 7 hrs by LC/MS/MS analysis relative to hepatic blood flow; format: ADME, organism-based; settings: in vivo
# Canis familiaris [34] = assay: Clearance in Beagle dog at 10 mg/kg, po administered as solution measured up to 7 hrs by LC/MS/MS analysis relative to hepatic blood flow; format: ADME, organism-based, Canis lupus familiaris; settings: in vivo
# Mus musculus [35] = organism: Mus musculus; settings: in vivo, po, 3 mg/kg, 7 h
# Mus musculus [36] = organism: Mus musculus; settings: in vivo, po, 3 mg/kg
# Mus musculus [37] = organism: Mus musculus; settings: in vivo, iv, 1 mg/kg
# in vivo [38] = settings: C57BL/6, mouse, po, 3 mg/kg
# in vivo [39] = settings: C57BL/6, mouse, iv, 1 mg/kg
# in vivo [40] = settings: C57BL/6, mouse
smiles,measurement,setting,value
CC(C)c1ccc(N2CCc3cc(O)ccc3[C@@]2(C)c2ccc(/C=C/C(=O)O)cc2)cc1,Drug metabolism,Plasma [1],Metabolite_Detected
same,Drug metabolism,Plasma [2],Metabolite_Detected
same,Drug metabolism,Plasma [3],Metabolite_Detected
same,Drug metabolism,Plasma [4],Metabolite_Detected
same,Drug metabolism,Plasma [5],Metabolite_Detected
same,Drug metabolism,[6],Metabolite_Detected
same,Drug metabolism,[7],Metabolite_Detected
same,Drug metabolism,[8],Metabolite_Detected
CC1(c2ccc(/C=C/C(=O)NCC(F)F)cc2)c2ccc(O)cc2CCN1c1ccc(F)cc1 (stereo not drawn),log(permeability),[9],-4.2
same,solubility at 16 h,physchem,< 5 µM
CC(C)c1ccc(N2CCc3cc(O)ccc3[C@]2(C)c2ccc(/C=C/C(=O)O)cc2)cc1,Drug metabolism,Plasma [1],Metabolite_Detected
same,Drug metabolism,Plasma [2],Metabolite_Detected
same,Drug metabolism,Plasma [3],Metabolite_Detected
same,Drug metabolism,Plasma [4],Metabolite_Detected
same,Drug metabolism,Plasma [5],Metabolite_Detected
same,Drug metabolism,[6],Metabolite_Detected
same,Drug metabolism,[7],Metabolite_Detected
same,Drug metabolism,[8],Metabolite_Detected
CC1(c2ccc(/C=C/C(=O)O)cc2)c2ccc(O)cc2CCN1c1cccc(F)c1 (stereo not drawn),log(permeability),[9],-4.3
same,solubility at 16 h,physchem,561 µM
CC(C)c1ccc(N2CCc3cc(O)ccc3C2(C)c2ccc(/C=C/C(=O)O)cc2)cc1 (stereo not drawn),bioavailability,[10],60%
same,Cmax/dose,Rattus norvegicus [11],1199 nM
same,Tmax,[12],0.3 h
same,AUCt/dose,Rattus norvegicus [13],1586 nM·h/mg
same,AUCt/dose,Rattus norvegicus [14],2627 nM·h/mg
same,CL/F,[15],14.9 mL/min/kg
same,half-life,[16],0.8 h
same,Cmax/dose,Rattus norvegicus [17],346 nM
same,Tmax,[18],2 h
same,AUCt/dose,Rattus norvegicus [19],1125 nM·h/mg
same,Cmax/dose,Rattus norvegicus [20],202 nM
same,Tmax,[21],1.5 h
same,AUCt/dose,Rattus norvegicus [22],918 nM·h/mg
same,Cmax/dose,Rattus norvegicus [23],602 nM
same,Tmax,[24],0.3 h
same,AUCt/dose,Rattus norvegicus [25],955 nM·h/mg
same,bioavailability,[26],56%
same,Cmax/dose,Canis familiaris [27],1311 nM
same,AUCt/dose,Canis familiaris [28],7994 nM·h/mg
same,AUCt/dose,Canis familiaris [29],14347 nM·h/mg
same,Tmax,[30],1.2 h
same,CL/F,[31],2.3 mL/min/kg
same,half-life,[32],5 h
same,CL,Rattus norvegicus [33],27%
same,CL,Canis familiaris [34],7%
same,log(permeability),[9],-4.1
same,Cmax/dose,Mus musculus [35],2621 nM
same,AUC/dose,Mus musculus [36],4533 nM·h/mg
same,AUC/dose,Mus musculus [37],5808 nM·h/mg
same,bioavailability at 7 h,in vivo [38],78%
same,clearance at 7 h,in vivo [39],7 mL/min/kg
same,half-life at 7 h,in vivo [40],1.1 h
same,solubility at 16 h,physchem,94 µM
